PubChem BioAssay (NCI)
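Where inhibition never reached the appropriate level, the endpoint shown equals the highest concentration tested. Otherwise, values were interpolated linearly from a five-concentration, 48-hour dose response in 96-well plates. TGI: total growth inhibition.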

Key:
Test in all cases: NCI-60 cell line screen, 48 h
786-0 renal = test system: 786-0 renal
A498 renal = test system: A498 renal
A549 NSCLC = test system: A549 NSCLC
ACHN renal = test system: ACHN renal
BT-549 breast = test system: BT-549 breast
CAKI-1 renal = test system: CAKI-1 renal
CCRF-CEM leukemia = test system: CCRF-CEM leukemia
COLO 205 colon = test system: COLO 205 colon
DU-145 prostate = test system: DU-145 prostate
EKVX NSCLC = test system: EKVX NSCLC
HCC-2998 colon = test system: HCC-2998 colon
HCT-116 colon = test system: HCT-116 colon
HCT-15 colon = test system: HCT-15 colon
HL-60(TB) leukemia = test system: HL-60(TB) leukemia
HOP-62 NSCLC = test system: HOP-62 NSCLC
HOP-92 NSCLC = test system: HOP-92 NSCLC
HS 578T breast = test system: HS 578T breast
HT29 colon = test system: HT29 colon
IGROV1 ovarian = test system: IGROV1 ovarian
KM12 colon = test system: KM12 colon
LOX IMVI melanoma = test system: LOX IMVI melanoma
M14 melanoma = test system: M14 melanoma
MALME-3M melanoma = test system: MALME-3M melanoma
MCF7 breast = test system: MCF7 breast
MDA-MB-435 = test system: MDA-MB-435
MDA-N = test system: MDA-N
MOLT-4 leukemia = test system: MOLT-4 leukemia
NCI-H23 lung = test system: NCI-H23 lung
NCI-H460 lung = test system: NCI-H460 lung
NCI-H522 lung = test system: NCI-H522 lung
OVCAR-3 ovarian = test system: OVCAR-3 ovarian
OVCAR-4 ovarian = test system: OVCAR-4 ovarian
OVCAR-5 ovarian = test system: OVCAR-5 ovarian
OVCAR-8 ovarian = test system: OVCAR-8 ovarian
PC-3 prostate = test system: PC-3 prostate
RPMI-8226 leukemia = test system: RPMI-8226 leukemia
RXF 393 renal = test system: RXF 393 renal
SF-268 CNS = test system: SF-268 CNS
SF-295 CNS = test system: SF-295 CNS
SF-539 CNS = test system: SF-539 CNS
SK-MEL-28 melanoma = test system: SK-MEL-28 melanoma
SK-MEL-5 melanoma = test system: SK-MEL-5 melanoma
SK-OV-3 ovarian = test system: SK-OV-3 ovarian
SN12C renal = test system: SN12C renal
SNB-19 CNS = test system: SNB-19 CNS
SNB-75 CNS = test system: SNB-75 CNS
SR leukemia = test system: SR leukemia
SW-620 colon = test system: SW-620 colon
TK-10 renal = test system: TK-10 renal
U251 CNS = test system: U251 CNS
UACC-257 melanoma = test system: UACC-257 melanoma
UACC-62 melanoma = test system: UACC-62 melanoma
UO-31 renal = test system: UO-31 renal

Measured: TGI

CN(C)CCNC(=O)c1ccc2nc3c(nc2c1)C(=O)c1ccccc1-3
39.3 µM: CCRF-CEM leukemia
54.7 µM: SR leukemia
32.1 µM: SK-MEL-5 melanoma
41.3 µM: BT-549 breast
48.2 µM: MDA-MB-435
71.5 µM: U251 CNS
81.5 µM: HT29 colon
52.6 µM: MOLT-4 leukemia
38.6 µM: NCI-H460 lung
82.3 µM: MALME-3M melanoma
38.2 µM: HL-60(TB) leukemia
63.3 µM: RPMI-8226 leukemia
33.6 µM: MDA-N
73.4 µM: LOX IMVI melanoma
> 100 µM: all other assays above
